In publication PMC7901646, “Pyrrolo[2′,3′:3,4]cyclohepta[1,2-d][1,2]oxazoles, a New Class of Antimitotic Agents Active against Multiple Malignant Cell Types” (Journal of Medicinal Chemistry, 2020):
Like-named read-outs stand apart in the source and are kept apart here.

Tests used:
Format in all cases: cell-based
[1] = system: NCI-60 panel of human cancer cell lines; test: NCI in vitro human tumor cell line screening, full panel; settings: full NCI panel; for MG_MID (mean graph midpoint): arithmetic mean for all tested cancer cell lines; for GI50: five concentrations 10^–4–10^–8 M, read-out: GI50 (concentration that inhibits 50% net cell growth), range over panel
Description: (§1) on the full NCI-60 panel comprising cancer cell lines derived from nine human cancer cell types (leukemia, non-small-cell lung, colon, central nervous system, melanoma, ovarian, renal, prostate, and breast).[50]

A498 = test: NCI-60 screen; settings: Homo sapiens, Renal Cancer
Method: as §1, with “All the synthesized compounds 51–76 were tested at a 10^–5 M concentration for their antitumor activity on the” for “on the”

ACHN = test: NCI-60 screen; settings: Homo sapiens, Renal Cancer
Method: as §1, with “All the synthesized compounds 51–76 were tested at a 10^–5 M concentration for their antitumor activity on the” for “on the”

CAKI-1 = test: NCI-60 screen; settings: Homo sapiens, Renal Cancer
Method: as §1, with “All the synthesized compounds 51–76 were tested at a 10^–5 M concentration for their antitumor activity on the” for “on the”

CCRF-CEM = test: NCI-60 screen; settings: Homo sapiens, Leukemia
Method: as §1, with “All the synthesized compounds 51–76 were tested at a 10^–5 M concentration for their antitumor activity on the” for “on the”

COLO 205 = test: NCI-60 screen; settings: Homo sapiens, Colon Cancer
Method: as §1, with “All the synthesized compounds 51–76 were tested at a 10^–5 M concentration for their antitumor activity on the” for “on the”

DU-145 = test: NCI-60 screen; settings: Homo sapiens, Prostate Cancer
Method: as §1, with “All the synthesized compounds 51–76 were tested at a 10^–5 M concentration for their antitumor activity on the” for “on the”

HCT-15 = test: NCI-60 screen; settings: Homo sapiens, Colon Cancer
Method: as §1, with “All the synthesized compounds 51–76 were tested at a 10^–5 M concentration for their antitumor activity on the” for “on the”

HL-60(TB) = test: NCI-60 screen; settings: Homo sapiens, Leukemia
Method: as §1, with “All the synthesized compounds 51–76 were tested at a 10^–5 M concentration for their antitumor activity on the” for “on the”

HT29 = test: NCI-60 screen; settings: Homo sapiens, HT-29; Colon Cancer
Method: as §1, with “All the synthesized compounds 51–76 were tested at a 10^–5 M concentration for their antitumor activity on the” for “on the”

IGROV1 = test: NCI-60 screen; settings: Homo sapiens, IGROV-1; Ovarian Cancer
Method: as §1, with “All the synthesized compounds 51–76 were tested at a 10^–5 M concentration for their antitumor activity on the” for “on the”

K-562 = test: NCI-60 screen; settings: Homo sapiens, K562; Leukemia
Method: as §1, with “All the synthesized compounds 51–76 were tested at a 10^–5 M concentration for their antitumor activity on the” for “on the”

M14 = test: NCI-60 screen; settings: Homo sapiens, Melanoma
Method: as §1, with “All the synthesized compounds 51–76 were tested at a 10^–5 M concentration for their antitumor activity on the” for “on the”

MDA-MB-231/ATCC = test: NCI-60 screen; settings: Homo sapiens, Breast Cancer
Method: as §1, with “All the synthesized compounds 51–76 were tested at a 10^–5 M concentration for their antitumor activity on the” for “on the”

MDA-MB-435 = test: NCI-60 screen; settings: Homo sapiens, Melanoma
Method: as §1, with “All the synthesized compounds 51–76 were tested at a 10^–5 M concentration for their antitumor activity on the” for “on the”

NCI-H226 = test: NCI-60 screen; settings: Homo sapiens, Non-Small-Cell Lung Cancer
Method: as §1, with “All the synthesized compounds 51–76 were tested at a 10^–5 M concentration for their antitumor activity on the” for “on the”

NCI-H460 = test: NCI-60 screen; settings: Homo sapiens, Non-Small-Cell Lung Cancer
Method: as §1, with “All the synthesized compounds 51–76 were tested at a 10^–5 M concentration for their antitumor activity on the” for “on the”

PC-3 = test: NCI-60 screen; settings: Homo sapiens, Prostate Cancer
Method: as §1, with “All the synthesized compounds 51–76 were tested at a 10^–5 M concentration for their antitumor activity on the” for “on the”

RPMI-8226 = test: NCI-60 screen; settings: Homo sapiens, Leukemia
Method: as §1, with “All the synthesized compounds 51–76 were tested at a 10^–5 M concentration for their antitumor activity on the” for “on the”

SF-268 = test: NCI-60 screen; settings: Homo sapiens, CNS Cancer
Method: as §1, with “All the synthesized compounds 51–76 were tested at a 10^–5 M concentration for their antitumor activity on the” for “on the”

SK-OV-3 = test: NCI-60 screen; settings: Homo sapiens, Ovarian Cancer
Method: as §1, with “All the synthesized compounds 51–76 were tested at a 10^–5 M concentration for their antitumor activity on the” for “on the”

SW-620 = test: NCI-60 screen; settings: Homo sapiens, Colon Cancer
Method: as §1, with “All the synthesized compounds 51–76 were tested at a 10^–5 M concentration for their antitumor activity on the” for “on the”

KM12 = test: NCI-60 screen; settings: Homo sapiens, Colon Cancer
Description: as §1

LOX IMVI = test: NCI-60 screen; settings: Homo sapiens, Melanoma
Description: as §1

NCI-H522 = test: NCI-60 screen; settings: Homo sapiens, Non-Small-Cell Lung Cancer
Description: as §1

OVCAR-3 = test: NCI-60 screen; settings: Homo sapiens, Ovarian Cancer
Description: as §1

HBL1 (ABC DLBCL) = test: MTT cell proliferation, lymphoma; settings: Homo sapiens, 72 h; for activity at 1 µM: of untreated cells, read-out: Proliferating cells (%); for IC50: MTT
Method: (§2) All compounds were further tested at the concentration of 1 μM on four cell lines derived from distinct lymphoma histotypes, plus two with secondary resistance to the PI3Kδ inhibitor idelalisib[51] or to the BTK inhibitor ibrutinib.[52] […] For comparison, the same experiments were conducted using compound 3, but the response to it was minimal, and thus it was not considered further.
(§3) Established human cell lines derived from germinal center B-cell (GCB) (SU-DHL-10), activated B-cell (ABC) (HBL1) diffuse large B-cell lymphoma (DLBCL), mantle cell lymphoma (MCL) (MINO), splenic marginal zone lymphoma (SMZL) (parental VL51, VL51 idelalisib resistant clone, VL51 ibrutinib resistant clone) were cultured in culture RPMI-1640 media supplemented with fetal bovine serum (10%), penicillin–streptomycin–neomycin (∼5,000 units of penicillin, 5 mg of streptomycinm and 10 mg of neomycin/mL, Sigma), and L-glutamine (1%). Vincristine sulfate was purchased from Sigma-Aldrich. Cell line identities were confirmed by CellCheck test (IDEXX, BioResearch, Ludwigsburg, Germany). All compounds were dissolved in dimethyl sulfoxide to obtain a stock concentration of 10 mM.
(§4) The antiproliferative activity of all compounds was assessed by using the 3-(4.5-dimethylthiazolyl-2)-2,5-diphenyltetrazolium bromide (MTT) test. Cells were seeded in 96-well plates (nontissue culture treated) at a density of 1 × 10^5 cells/mL and treated with a single concentration of 1 μM for 72 h. […] In this case, cells were treated in triplicate with serially diluted compounds in the appropriate tissue culture medium at a range of 40–10 000 nM. Cells were incubated for 72 h at 37 °C, 5% CO2. Wells containing medium only were included on each plate and served as blanks for absorbance readings. MTT (Sigma, Buchs, Switzerland) was prepared as a 5 mg/mL stock solution in phosphate buffered saline (PBS) and filter-sterilized. MTT solution (22 μL) was added to each well, and tissue culture plates were incubated at 37 °C for 4 h. Cells were then lysed with 25% sodium dodecyl sulfate lysis buffer, and absorbance was read at 570 nm using a Beckman Coulter-AD340 plate reader.

MINO (MCL) = test: MTT cell proliferation, lymphoma; settings: Homo sapiens, 72 h; for activity at 1 µM: of untreated cells, read-out: Proliferating cells (%); for IC50: MTT
Method: as §2, §3, §4

SU-DHL-10 (GCB DLBCL) = test: MTT cell proliferation, lymphoma; settings: Homo sapiens, SU-DHL10, 72 h; for activity at 1 µM: of untreated cells, read-out: Proliferating cells (%); for IC50: MTT
Method: as §2, §3, §4

VL51 (MZL) = test: MTT cell proliferation, lymphoma; settings: Homo sapiens, 72 h; for activity at 1 µM: of untreated cells, read-out: Proliferating cells (%); for IC50: MTT
Method: as §2, §3, §4

VL51 ibrutinib-resistant = test: MTT cell proliferation, lymphoma; settings: Homo sapiens, 72 h, of untreated cells, read-out: Proliferating cells (%)
Method: as §2, §3, §4

[2] = system: VL51 idelalisib-resistant; test: MTT cell proliferation, lymphoma; settings: Homo sapiens, 72 h, of untreated cells, read-out: Proliferating cells (%)
Method: as §2, §3, §4

Structure (SMILES)	MG_MID (mean graph midpoint) [1] [µM]	GI50 (A498) [nM]	GI50 (ACHN) [nM]	GI50 (CAKI-1) [nM]	GI50 (CCRF-CEM) [nM]	GI50 (COLO 205) [nM]	GI50 (DU-145) [nM]	GI50 (HCT-15) [nM]	GI50 (HL-60(TB)) [nM]	GI50 (HT29) [nM]	GI50 (IGROV1) [nM]	GI50 (K-562) [nM]	GI50 (M14) [nM]	GI50 (MDA-MB-231/ATCC) [nM]	GI50 (MDA-MB-435) [nM]	GI50 (NCI-H226) [nM]	GI50 (NCI-H460) [nM]	GI50 (PC-3) [nM]	GI50 (RPMI-8226) [nM]	GI50 (SF-268) [nM]	other results
CCOC(=O)c1cc2c(n1Cc1cc(OC)c(OC)c(OC)c1)-c1oncc1CCC2 [Compound 67, Ethyl 9-(3,4,5-Trimethoxybenzyl)-4,5,6,9-tetrahydropyrrolo[2′,3′:3,4]cyclohepta[1,2-d][1,2]oxazole-8-carboxylate]	0.20	110	290	70	300	40	280	160	190	70	60	130	150	480	20	1210	230	170	380	520	GI50 [1]: 10 to 64900 nM; GI50 (SK-OV-3): 130 nM; GI50 (SW-620): 140 nM; GI50 (KM12): 50 nM; GI50 (LOX IMVI): 410 nM; GI50 (NCI-H522): 10 nM; GI50 (OVCAR-3): 30 nM; activity at 1 µM (HBL1 (ABC DLBCL)): 24.2%; IC50 (HBL1 (ABC DLBCL)): 900 nM; activity at 1 µM (MINO (MCL)): 8.9%; IC50 (MINO (MCL)): 600 nM; activity at 1 µM (SU-DHL-10 (GCB DLBCL)): 11.2%; IC50 (SU-DHL-10 (GCB DLBCL)): 600 nM; activity at 1 µM (VL51 (MZL)): 40.5%; IC50 (VL51 (MZL)): 500 nM; activity at 1 µM (VL51 ibrutinib-resistant): 40.4%; activity at 1 µM [2]: 36.6%
CCOC(=O)c1c(Cl)c2c(n1Cc1cc(OC)cc(OC)c1)-c1oncc1CCC2 [Compound 75, Ethyl 7-Chloro-9-(3,5-dimethoxybenzyl)-4,5,6,9-tetrahydropyrrolo[2′,3′:3,4]cyclohepta[1,2-d][1,2]oxazole-8-carboxylate]	0.41	170	940	280	250	170	350	370	310	270	340	290	260	840	30	9710	350	290	390	1910	GI50 ([1]; Homo sapiens): 30 to 27000 nM; GI50 (SK-OV-3): 240 nM; GI50 (SW-620): 320 nM; GI50 (KM12): 320 nM; GI50 (LOX IMVI): 880 nM; GI50 (NCI-H522): 30 nM; GI50 (OVCAR-3): 190 nM; activity at 1 µM (HBL1 (ABC DLBCL)): 20.7%; IC50 (HBL1 (ABC DLBCL)): 900 nM; activity at 1 µM (MINO (MCL)): 9.5%; IC50 (MINO (MCL)): 900 nM; activity at 1 µM (SU-DHL-10 (GCB DLBCL)): 11.5%; IC50 (SU-DHL-10 (GCB DLBCL)): 900 nM; activity at 1 µM (VL51 (MZL)): 38.1%; IC50 (VL51 (MZL)): 800 nM; activity at 1 µM (VL51 ibrutinib-resistant): 40.8%; activity at 1 µM [2]: 40.2%
